From US20200190062A1, “HETEROCYCLIC COMPOUND AND PHARMACEUTICAL COMPOSITION COMPRISING SAME” (BEYONDBIO INC., priority 2015, published 2020) come the findings set out here.

Common to all, as to experiment: Inhibition of cancer cell proliferation (MTT)
What all share (type): cell-based, human

For one experiment, the system named is A549. The method, then: (§1) A test was conducted to confirm whether the compounds obtained in the above Examples can inhibit proliferation of human colon carcinoma cell line HCT116, glioblastoma cell lines U-87MG and T98G, neuroblastoma cell lines SH-SYSY and SK-N-SH, and lung cancer cell lines A549 and NCI-H23.
(§2) HCT116, U-87MG, SH-SYSY, SK-N-SH and A549 cells were culured in DMEM medium containing 10% FBS. T98G cells were cultured in MEM medium containing 10% FBS and NCI-H23 cells were cultured in […] medium containing 10% FBS. In order to analyze an inhibition of proliferation, HCT116 cells were dispensed in 2000 cells/well into 96 well plate, and SH-SYSY, SK-N-SH, U-87MG, T98G, A549, and NCI-H23 cells were dispensed in 3000 cells/well into 96 well plate. And then, the cells were cultured at 5% CO2 and 37° C. for 16 hrs to allow the cells to attach to the wells. The compounds of the above Examples were added to each well at a concentration of 0.004, 0.013, 0.04, 0.12, 0.37, 1.1, 3.3, and 10 uM, and the culture volume was adjusted to 100 ul. A control group was treated with dimethylsulfoxide (DMSO) at the same concentration, 0.08%, as used to treat the test compounds. Afterwards, cells were cultured at 5% CO2 and 37° C. for 72 hrs. And then, 10 ul of the solution of MTT (3-(4,5-dimethylthiazol-2-yl)-2,5-diphenyltetrazolium bromide) dissolved in PBS at 5 mg/ml was added to each well to identify viable cells and the cells were cultured for further 2 hrs. The culture solution was removed, 100 ul of DMSO was added to dissolve the formed formazan and then an absorbance was measured at 535 nm. Based on the absorbance of the control cells not treated with the compounds, the amounts of the viable cells according to the concentration of the compounds were calculated. GI50 (growth inhibition 50) value which is the concentration of the compound to inhibit cancer cell proliferation by 50% was calculated using Graphpad Prism 5.0 program.

In the next experiment the test system is HCT116. The protocol:
as §1, §2

Another experiment concerns NCI-H23. The method, then:
as §1, §2

For another experiment, the system named is T98G. The protocol: as §1, §2
For another experiment, the system named is U-87MG. The method, then:
as §1, §2

Molecules are shown by their SMILES. Where a name gives a salt, the structure may show the parent alone.

What is called GI50 is the concentration at which growth is held to half of that of the control. Lower therefore signals more potent growth inhibition. Turning to `Cc1cnc(N)nc1-c1nc(-c2ccnc(N)c2F)ccc1O` [Example 100, 2′-amino-6-(2-amino-5-methylpyrimidin-4-yl)-3′-fluoro-[2,4′-bipyridin]-5-ol 3hydrochloride], the concentration for 50% growth inhibition (GI50) was 70 nM in the experiment on A549 (72 hrs); 30 nM in the experiment on HCT116 (72 hrs); 70 nM in the experiment on NCI-H23 (72 hrs); 50 nM with T98G (72 hrs); 60 nM with U-87MG (72 hrs).
For `Cc1cc(-c2nc(-c3ccncc3F)ccc2O)nc(N)n1` [Example 26, 6-(2-amino-6-methylpyrimidin-4-yl)-3′-fluoro-[2,4′-bipyridin]-5-ol], in the experiment on HCT116 (Homo sapiens, HCT-116, 72 h), growth was halved (GI50) at 1180 nM.
Consider `Cc1c(-c2nc(-c3ccnc(N)c3F)ccc2O)nc(N)nc1C1CCN(C(C)C)CC1` [Example 45, 2′-amino-6-(2-amino-6-(1-isopropylpiperidin-4-yl)-5-methylpyrimidin-4-yl)-3′-fluoro-[2,4′-bipyridin]-5-ol], for which the GI50 was 150 nM with A549 (Homo sapiens, A549, 72 h); 90 nM with HCT116 (Homo sapiens, HCT-116, 72 h); 400 nM in the experiment on NCI-H23 (Homo sapiens, NCI-H23, 72 h); 160 nM in the experiment on T98G (Homo sapiens, T98G, 72 h); 100 nM in the experiment with U-87MG (Homo sapiens, U-87 MG, 72 h).
As for `CN1CCCC(c2cc(-c3nc(-c4ccnc(N)c4F)ccc3O)nc(N)n2)C1` (stereo not drawn) [Example 89, 2′-amino-6-(2-amino-6-(1-methylpiperidin-3-yl)pyrimidin-4-yl)-3′-fluoro-[2,4′-bipyridin]-5-ol 4hydrochloride], the figures for the concentration for 50% growth inhibition (GI50) in the experiment on A549 (72 hrs), in the experiment on NCI-H23 (72 hrs) and in the experiment on T98G (72 hrs) were 10 nM, 20 nM and 20 nM, respectively.
Turning to `CCCc1cnc(N)nc1-c1nc(-c2ccnc(N)c2F)ccc1O` [Example 57, 2′-amino-6-(2-amino-5-propylpyrimidin-4-yl)-3′-fluoro-[2,4′-bipyridin]-5-ol], the GI50 in the experiment with A549 (72 hrs) stood at 40 nM; in the experiment with HCT116 (Homo sapiens, HCT-116, 72 h), 20 nM; in the experiment with NCI-H23 (Homo sapiens, NCI-H23, 72 h) it was 40 nM; in the experiment with T98G (72 hrs) it was 60 nM; with U-87MG (Homo sapiens, U-87 MG, 72 h), 20 nM.
Compound `Nc1nccc(-c2ccc(O)c(-c3ccnc(N)n3)n2)n1` [Example 62, 2,6-bis(2-aminopyrimidin-4-yl)pyridin-3-ol oxalate] showed a GI50 with HCT116 (72 hrs, oxalate) of 190 nM.
For `CC(C)c1cnc(N)nc1-c1nc(-c2ccnc(N)c2F)ccc1O` [Example 58], the GI50 in the experiment with A549 (Homo sapiens, A549, 72 h) was determined as 70 nM; in the experiment on HCT116 (Homo sapiens, HCT-116, 72 h) it was 30 nM; with NCI-H23 (Homo sapiens, NCI-H23, 72 h) it was 60 nM; in the experiment on T98G (Homo sapiens, T98G, 72 h), 40 nM; in the experiment on U-87MG (Homo sapiens, U-87 MG, 72 h), 60 nM.
As to `CCCN1CCC(c2nc(N)nc(-c3nc(-c4ccnc(N)c4F)ccc3O)c2C)CC1` [Example 95, 2′-amino-6-(2-amino-5-methyl-6-(1-propylpiperidin-4-yl)pyrimidin-4-yl)-3′-fluoro-[2,4′-bipyridin]-5-ol 4hydrochloride], the GI50 with A549 (72 hrs) is 80 nM; in the experiment on HCT116 (72 hrs) it was 60 nM; with NCI-H23 (72 hrs), 150 nM; in the experiment with T98G (72 hrs), 160 nM; with U-87MG (72 hrs), 100 nM.
In the experiment on HCT116 (72 hrs, oxalate), `CN1CCC(c2cc(-c3nc(-c4ccnc(N)c4F)ccc3O)nc(N)n2)CC1` [Example 79, 2′-amino-6-(2-amino-6-(1-methylpiperidin-4-yl)pyrimidin-4-yl)-3′-fluoro-[2,4′-bipyridin]-5-ol oxalate] gave a GI50 of 40 nM.
Take `Nc1nc(-c2nc(-c3ccnc(N)c3F)ccc2O)cc(C2CCOCC2)n1` [Example 85, 2′-amino-6-(2-amino-6-(tetrahydro-2H-pyran-4-yl)pyrimidin-4-yl)-3′-fluoro-[2,4′-bipyridin]-5-ol 3hydrochloride]: the GI50 came to 60 nM in the experiment on A549 (72 hrs); 20 nM in the experiment with HCT116 (72 hrs); 140 nM in the experiment on NCI-H23 (72 hrs); 90 nM in the experiment on T98G (72 hrs); 70 nM with U-87MG (72 hrs).
The compound `Nc1nccc(-c2ccc(O)c(-c3ccnc(N)n3)n2)n1` [Example 64, 2,6-bis(2-aminopyrimidin-4-yl)pyridin-3-ol sulfate] returned a GI50 in the experiment with HCT116 (72 hrs) of 190 nM.
As for `Cc1c(-c2nc(-c3ccnc(N)c3F)ccc2O)nc(N)nc1C1CCN(C(C)C)CC1` [Example 96, 2′-amino-6-(2-amino-6-(1-isopropylpiperidin-4-yl)-5-methylpyrimidin-4-yl)-3′-fluoro-[2,4′-bipyridin]-5-ol 4hydrochloride], the GI50 is 130 nM in the experiment with A549 (72 hrs); 60 nM in the experiment on HCT116 (72 hrs); 210 nM with NCI-H23 (72 hrs); 190 nM in the experiment on T98G (72 hrs); 80 nM in the experiment on U-87MG (72 hrs).
On to `Cc1c(-c2nc(-c3ccnc(N)c3F)ccc2O)nc(N)nc1C1CCCN(C)C1` (stereo not drawn) [Example 46], for which the GI50 in the experiment on A549 (Homo sapiens, A549, 72 h) was 210 nM; in the experiment on HCT116 (Homo sapiens, HCT-116, 72 h), 140 nM; with NCI-H23 (Homo sapiens, NCI-H23, 72 h) it was 410 nM; in the experiment on T98G (Homo sapiens, T98G, 72 h), 250 nM; in the experiment on U-87MG (Homo sapiens, U-87 MG, 72 h), 150 nM.
As for `Cc1cc(-c2nc(-c3ccncc3)ccc2O)nc(N)n1` [Example 25, 6-(2-amino-6-methylpyrimidin-4-yl)-[2,4′-bipyridin]-5-ol], in the experiment with HCT116 (Homo sapiens, HCT-116, 72 h), the GI50 stood at 290 nM.
As to `CC(C)c1cc(-c2nc(-c3ccnc(N)c3F)ccc2O)nc(N)n1` [Example 81, 2′-amino-6-(2-amino-6-isopropylpyrimidin-4-yl)-3′-fluoro-[2,4′-bipyridin]-5-ol 3hydrochloride], the GI50 in the experiment on A549 (72 hrs) amounted to 140 nM; in the experiment with HCT116 (72 hrs), 20 nM; in the experiment on NCI-H23 (72 hrs), 70 nM.
On to `Cc1cc(-c2nc(-c3cccc(N)c3)ccc2O)nc(N)n1` [Example 30, 2-(2-amino-6-methylpyrimidin-4-yl)-6-(3-aminophenyl)pyridin-3-ol], for which halving of growth in the experiment on HCT116 (Homo sapiens, HCT-116, 72 h) (GI50) required 720 nM.
In turn, `Nc1nccc(-c2ccc(O)c(-c3ccnc(N)n3)n2)n1` [Example 63, 2,6-bis(2-aminopyrimidin-4-yl)pyridin-3-ol malonate] registered a GI50 in the experiment with HCT116 (72 hrs) of 190 nM.
Still for that read-out and setting: under `CN1CCC(c2cc(-c3nc(-c4ccnc(N)c4F)ccc3O)nc(N)n2)CC1` [Example 80, 2′-amino-6-(2-amino-6-(1-methylpiperidin-4-yl)pyrimidin-4-yl)-3′-fluoro-[2,4′-bipyridin]-5-ol malonate] stands 140 nM.
As to `Cc1c(-c2nc(-c3ccnc(N)c3F)ccc2O)nc(N)nc1C1CCCN(C(C)C)C1` (stereo not drawn) [Example 48, 2′-amino-6-(2-amino-6-(1-isopropylpiperidin-3-yl)-5-methylpyrimidin-4-yl)-3′-fluoro-[2,4′-bipyridin]-5-ol], the GI50 stood at 2910 nM in the experiment with HCT116 (Homo sapiens, HCT-116, 72 h) and 3820 nM in the experiment on U-87MG (Homo sapiens, U-87 MG, 72 h).
In the experiment on HCT116 (Homo sapiens, HCT-116, 72 h), `Nc1cccc(-c2nc(-c3ccnc(N)n3)ccc2O)n1` [Example 7, 6′-amino-6-(2-aminopyrimidin-4-yl)-[2,2′-bipyridin]-3-ol] showed a 50% growth inhibitory concentration (GI50) of 670 nM.
As for `Nc1nccc(-c2nc(-c3cccnc3)ccc2O)n1` [Example 11, 6-(2-aminopyrimidin-4-yl)-[2,3′-bipyridin]-5-ol], the GI50 in the experiment with HCT116 (Homo sapiens, HCT-116, 72 h) turned out to be 6080 nM.
`CN1CCC(c2cc(-c3nc(-c4ccnc(N)c4F)ccc3O)nc(N)n2)CC1` [Example 78, 2′-amino-6-(2-amino-6-(1-methylpiperidin-4-yl)pyrimidin-4-yl)-3′-fluoro-[2,4′-bipyridin]-5-ol 2acetate] came in with a concentration for 50% growth inhibition (GI50) in the experiment with HCT116 (72 hrs) of 40 nM.
In the case of `Cc1cc(-c2nc(-c3ccc(O)cc3F)ccc2O)nc(N)n1` [Example 29, 2-(2-amino-6-methylpyrimidin-4-yl)-6-(2-fluoro-4-hydroxyphenyl)pyridin-3-ol], the GI50 with HCT116 (Homo sapiens, HCT-116, 72 h) was 1260 nM.
The same measure, in the same setting: under `Nc1nccc(-c2cnc(O)c(-c3ccnc(N)n3)c2)n1` [Example 6, 3,5-bis(2-aminopyrimidin-4-yl)pyridin-2-ol] stands 2300 nM; under `Nc1cc(-c2ncc(O)c(-c3ccnc(N)n3)n2)ccn1` [Example 5, 2′-amino-2-(2-aminopyridin-4-yl)-[4,4′-bipyrimidin]-5-ol], 3590 nM.
For `CC(C)c1cc(-c2nc(-c3ccnc(N)c3F)ccc2O)nc(N)n1` [Example 82, 2′-amino-6-(2-amino-6-isopropylpyrimidin-4-yl)-3′-fluoro-[2,4′-bipyridin]-5-ol 2acetate], the GI50 in the experiment on A549 (72 hrs) turned out to be 170 nM; with HCT116 (72 hrs), 20 nM; with NCI-H23 (72 hrs) it was 90 nM.
For `Cc1cc(-c2nc(-c3ccc(O)cc3)ccc2O)nc(N)n1` [Example 27, 2-(2-amino-6-methylpyrimidin-4-yl)-6-(4-hydroxyphenyl)pyridin-3-ol], in the experiment with HCT116 (Homo sapiens, HCT-116, 72 h), the concentration for 50% growth inhibition (GI50) was found to be 290 nM.
As for `Cc1c(-c2nc(-c3ccnc(N)c3F)ccc2O)nc(N)nc1C1CCCN(C(C)C)C1` (stereo not drawn) [Example 99, 2′-amino-6-(2-amino-6-(1-isopropylpiperidin-3-yl)-5-methylpyrimidin-4-yl)-3′-fluoro-[2,4′-bipyridin]-5-ol 4hydrochloride], the 50% growth inhibitory concentration (GI50) with HCT116 (72 hrs) was found to be 2030 nM; in the experiment with T98G (Homo sapiens, T98G, 72 h), 3790 nM; with U-87MG (72 hrs), 2570 nM.
